Read-outs that look alike come from different tables or passages of the source.
Tests used:
[1] = molecular target: reactive cysteine sites of other proteins in A549 cells (Homo sapiens, UniProt P40222); conditions: 4 h, P40222_C87 Alpha-taxilin
Excerpt: (§1) Further, the samples were digested with tosylsulfonyl phenylalanyl chloromethyl ketone (TPCK)-treated trypsin and endoGluC to increase the coverage of protein sequences, especially the PARK7 peptide containing Cys106 residue. Peptides generated by digestion from replicates of each sample were labeled using TMT16-plex to perform tandem mass tag (TMT)-based quantitative proteomics profiling. Following the TMT labeling, all samples were pooled and the peptides conjugated to the DBIA probe were enriched by streptavidin beads and analyzed by LC-MS/MS (Figure 3A). […] All cysteines were represented with the shortest peptide by using the average CR values of all the peptides with the same modified cysteine from the same protein in the same condition.[16],[27],[28]
(§2) A549 cells were seeded into 10 cm plates in 10 mL of media. […] The cells were then washed two times with cold PBS (1 mL per 10 cm plate) and collected by scraping them with a cell scraper. Cells were lysed by sonication in ice-cold PBS and centrifuged at 15,000 rpm for 2 min to remove cell debris. The BCA Gold protein assay (Thermo Fisher Scientific) was performed to determine protein concentration. Each sample (100 μg) was labeled with 500 μM DBIA probe for 1 h in the dark at room temperature (RT). Excess DBIA and disulfide bonds were quenched and reduced, respectively, using 5 mM dithiothreitol (DTT) for 30 min in the dark at RT. Reduced disulfide bonds were alkylated using 20 mM iodoacetamide for 30 min in the dark at RT. […] Digested peptides were labeled with TMTpro16-plex reagents (Thermo Fisher Scientific) in a 1:4 ratio by mass (peptides/TMT reagents) for 1 h at RT. Excess TMT reagent was quenched with 5 μL 6% hydroxylamine for 15 min at RT. All samples were then pooled and lyophilized.
(§3) Nonspecific binding peptides were washed away using the following procedure: 3 × 1 mL of PBS pH 7.4, 2 × 1 mL of PBS with 0.1% SDS pH 7.4, and 3 × 1 mL of HPLC-grade water. DBIA probe-containing peptides were eluted using 700 μL of 50% acetonitrile in 0.1% TFA, lyophilized using a Speedvac, and desalted using a handmade mini-SPE column (10% sorbent material of a Waters, OASIS 1 cm^3 HLB 30 mg cartridge). Column was equilibrated with 200 μL of 90% acetonitrile and 3 × 200 μL of 10 mM NH4HCO3 pH 8.4. The dried sample was dissolved in 200 μL of 10 mM NH4HCO3 pH 8.4, loaded onto the column, washed 3x with 200 μL of 10 mM NH4HCO3 pH 8.4, and eluted into 3 fractions with 150 μL of 10, 20, and 50% acetonitrile (in 10 mM NH4HCO3). Samples were then lyophilized.
(§4) 2.2.04 (www.matrixscience.com) for protein identification. Mascot searches were done with 10 ppm and 0.02 Da deviation for the precursor and fragment mass, respectively, and the enzymes trypsin and EndoGluC was specified, up to three missed cleavages were allowed. Methionine oxidation, acetyl (protein N-term), and DBIA on Cys were set as a variable modification. Carbamidomethyl on Cys and TMTpro on Lys and N-term were set as a fixed modification. Peptides with an FDR <1% were accepted. Peptides were only retained, if they were quantified and if there was exactly one DBIA modification on the peptide. The values for each TMT channel were normalized to the average of the values for the DMSO samples for the same peptide, and these values were named CR. For each peptide, the first entry of the Master Protein Accessions column was chosen as the Master Protein Accession, and the residue number of the cysteine modified by DBIA within the entire protein sequence was determined. Using this information, each peptide was assigned an identifier consisting of the Master Protein Accession and the residue number of the modified cysteine to assign each peptide to the respective modified cysteine residue. Within each replicate, CR values for all peptides with the same identifier (and thus the same modified cysteine residue) were combined by averaging and only the shortest Annotated Sequence was kept as the final Annotated Sequence.

[2] = molecular target: reactive cysteine sites of other proteins in A549 cells (Homo sapiens, UniProt P04080); conditions: 4 h, P04080_C3 Cystatin-B
reactive cysteine sites of other proteins in A549 cells (Homo sapiens, UniProt P04080), sequence (P04080 whole entry): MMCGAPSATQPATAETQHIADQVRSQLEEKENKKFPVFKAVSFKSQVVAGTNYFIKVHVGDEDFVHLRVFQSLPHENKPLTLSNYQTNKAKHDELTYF
Excerpt: as §1, §2, §3, §4

[3] = molecular target: reactive cysteine sites of other proteins in A549 cells (Homo sapiens, UniProt Q13085); conditions: 4 h, Q13085_C1297 Acetyl-CoA carboxylase 1
Excerpt: as §1, §2, §3, §4

[4] = molecular target: T1, reactive cysteine sites of other proteins in A549 cells (Homo sapiens, UniProt O60664); conditions: 4 h, O60664_C39 Perilipin-3
T1 sequence (O60664 1-434): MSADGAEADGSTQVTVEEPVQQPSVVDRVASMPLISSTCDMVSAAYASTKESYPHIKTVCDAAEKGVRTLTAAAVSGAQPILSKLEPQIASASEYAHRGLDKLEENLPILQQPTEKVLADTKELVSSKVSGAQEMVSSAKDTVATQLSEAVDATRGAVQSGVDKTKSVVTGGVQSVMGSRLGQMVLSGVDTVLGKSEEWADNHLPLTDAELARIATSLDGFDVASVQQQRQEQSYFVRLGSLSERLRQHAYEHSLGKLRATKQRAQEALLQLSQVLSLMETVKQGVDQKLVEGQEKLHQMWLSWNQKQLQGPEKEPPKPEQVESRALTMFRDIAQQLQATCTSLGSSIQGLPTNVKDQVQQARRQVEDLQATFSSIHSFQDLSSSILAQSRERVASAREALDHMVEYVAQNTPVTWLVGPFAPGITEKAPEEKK
Excerpt: as §1, §2, §3, §4

[5] = system: A549 cells; test: Cell viability assay (CellTiter-Blue); format: cell-based, human; conditions: up to 5 μM, 72 h incubation
Description: 5 × 10^3 A549 cells were seeded into 96-well plates. The following day, the indicated final concentrations of JYQ-164 and JYQ-173 were added to the cells, and DMSO was used as a control. Inhibitors were renewed at 36 h, and cells were incubated with them an additional 36 h. Cell viability was measured using the CellTiter-Blue viability assay (Promega). Relative survival was normalized to the DMSO-treated sample and corrected for background signal. page 8: Figure S6. Cytotoxicity assay for JYQ-164 and JYQ-173 in A549 cells. ( A) PARK7 engagement of JYQ -164 and JYQ-173 in A459 cells. A549 cells were incubated with […] The reactions were stopped by addition of NuPAGE™ LDS sample buffer (4x) , followed by cell lysis, SDS-PAGE, fluorescence scanning, and immunoblott in g against PARK7 and β-actin. β-actin was used as a loading control. (B) A549 cells were incubated with indicated concentration of JYQ-164 (left panel) or JYQ-173 (right panel) for 72 h where the inhibitors were renewed after 36 h. Cell viability was measured using the CellTiter-Blue assay. Relative viability was normalized to untreated control and corrected for background signal. S8 (1 picture or pasted object on this page, not shown here)

[6] = molecular target: T2, PARK7 (Homo sapiens, UniProt Q99497); test: Activity evaluation of PROTACs in cells (PARK7 degradation, immunoblot); parameters: Dmax: dose or concentration left out as unconfirmed
T2 sequence (Q99497 1-189): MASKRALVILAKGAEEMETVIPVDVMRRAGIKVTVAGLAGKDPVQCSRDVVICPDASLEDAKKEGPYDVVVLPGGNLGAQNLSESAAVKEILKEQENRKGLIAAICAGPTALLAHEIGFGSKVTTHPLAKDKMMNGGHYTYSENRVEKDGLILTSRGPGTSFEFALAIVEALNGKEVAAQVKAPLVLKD
Description: A549 cells were seeded into 6-well plates. The next day after seeding, cells were incubated with the indicated concentrations of indicated PROTACs for 8 h. The cells were then washed with PBS and collected. The collected cell pellets were lysed with Tris-triton buffer as described above. The prepared cell lysate of each sample (10 μL) was added 5 μL 3× LDS + 5% β-mercaptoethanol, and boiled for 10 min.

[7] = molecular target: T2, PARK7; test: TMT-based global proteomic profiling in A549 cells, PARK7; format: cell-based; parameters: incubating A549 cells with 5 μM JYQ-194 for 8 h, along with 5 μM JYQ-173 and DMSO as a control; endogenous in cells; host or cells: A549; conditions: 5 μM, 8 h
Description: A549 cells were seeded into 10 cm plates in 10 mL of media. […] Cells were lysed using a 5% SDS lysis buffer (100 mM Tris-HCl, pH 7.6) and were incubated at 95 °C for 4 min. Protein determination was performed using the Pierce BCA Gold protein assay. 100 μg of protein of each sample was reduced and alkylated, and excess iodoacetamide was quenched using 5 mM TCEP, 15 mM iodoacetamide, and 10 mM DTT, respectively. The protein was pelleted down using chloroform/methanol precipitation, and the resulting pellets were resolubilized in 40 mM HEPES pH 8.4. […] The Pierce BCA Gold protein assay was used to determine the peptide concentration. The peptides were labeled with TMTpro Label Reagents in a 1:4 ratio by mass (peptides/TMT reagents) for 1 h at RT. Five μL of 6% hydroxylamine was added to quench excess TMT reagent and incubated for 15 min at RT. Samples were pooled and lyophilized. The sample was subsequently fractionated on an Agilent 1200 series HPLC system (Agilent Technologies). 75 μg of the pooled sample was dissolved in solvent A (10 mM NH4HCO3, pH 8.4), injected onto, and eluted from an Agilent Eclipse Plus C18 2.1 × 150 mm 3.5 μm column (Agilent Technologies). The gradient was run from 2 to 90% solvent B (10 mM NH4HCO3, pH 8.4 final concentration, 20/80 water/acetonitrile v/v) in 30 min at a flow rate of 200 μL/min. […]

[8] = system: other proteins of A549 cells; test: TMT-based global proteomic profiling in A549 cells, other proteins; format: cell-based, Homo sapiens; conditions: 8 h; for Abundance Ratio: (compound) / (1 DMSO) / Abundance Ratio: log2 (compound) / (1 DMSO): A549, 5 μM
Description: A549 cells were seeded into 10 cm plates in 10 mL of media. […] Cells were lysed using a 5% SDS lysis buffer (100 mM Tris-HCl, pH 7.6) and were incubated at 95 °C for 4 min. Protein determination was performed using the Pierce BCA Gold protein assay. 100 μg of protein of each sample was reduced and alkylated, and excess iodoacetamide was quenched using 5 mM TCEP, 15 mM iodoacetamide, and 10 mM DTT, respectively. The protein was pelleted down using chloroform/methanol precipitation, and the resulting pellets were resolubilized in 40 mM HEPES pH 8.4. […] The Pierce BCA Gold protein assay was used to determine the peptide concentration. The peptides were labeled with TMTpro Label Reagents in a 1:4 ratio by mass (peptides/TMT reagents) for 1 h at RT. Five μL of 6% hydroxylamine was added to quench excess TMT reagent and incubated for 15 min at RT. Samples were pooled and lyophilized. The sample was subsequently fractionated on an Agilent 1200 series HPLC system (Agilent Technologies). 75 μg of the pooled sample was dissolved in solvent A (10 mM NH4HCO3, pH 8.4), injected onto, and eluted from an Agilent Eclipse Plus C18 2.1 × 150 mm 3.5 μm column (Agilent Technologies). The gradient was run from 2 to 90% solvent B (10 mM NH4HCO3, pH 8.4 final concentration, 20/80 water/acetonitrile v/v) in 30 min at a flow rate of 200 μL/min. Twelve fractions were made; every 30 s a fraction was collected in a vial, and the eluate of the next 30 s was collected in the next vial and so on until it loops back to the first vial (5 loops of 6 min each). Afterward, the samples were lyophilized.
2.2.07 (www.matrixscience.com) for protein identification. Mascot searches were with 10 ppm and 0.02 Da deviation for precursor and fragment mass, respectively. Enzyme specificity was set to trypsin. Up to two missed cleavages were allowed. Methionine oxidation and acetyl on protein N-terminus were set as variable modifications. Carbamidomethyl on Cys and TMTpro on Lys and N-terminus were set as fixed modifications. Protein FDR of 1% was set. Normalization was on total peptide amount. The values for each TMT channel were normalized to the average of the values for the DMSO samples for the same peptide, and these values were named FC. The log2 FC values of all replicates for the same master protein were averaged to give the “Average log2 FC”. A one-sample t test was performed against the null hypothesis of log2 FC = 0, and the resulting −log10p values were reported for each protein. The volcano plot was plotted using GraphPad Prism v.9.01.

reactive cysteine sites of other proteins in A549 cells (Homo sapiens, UniProt P40222), sequence (P40222 whole entry): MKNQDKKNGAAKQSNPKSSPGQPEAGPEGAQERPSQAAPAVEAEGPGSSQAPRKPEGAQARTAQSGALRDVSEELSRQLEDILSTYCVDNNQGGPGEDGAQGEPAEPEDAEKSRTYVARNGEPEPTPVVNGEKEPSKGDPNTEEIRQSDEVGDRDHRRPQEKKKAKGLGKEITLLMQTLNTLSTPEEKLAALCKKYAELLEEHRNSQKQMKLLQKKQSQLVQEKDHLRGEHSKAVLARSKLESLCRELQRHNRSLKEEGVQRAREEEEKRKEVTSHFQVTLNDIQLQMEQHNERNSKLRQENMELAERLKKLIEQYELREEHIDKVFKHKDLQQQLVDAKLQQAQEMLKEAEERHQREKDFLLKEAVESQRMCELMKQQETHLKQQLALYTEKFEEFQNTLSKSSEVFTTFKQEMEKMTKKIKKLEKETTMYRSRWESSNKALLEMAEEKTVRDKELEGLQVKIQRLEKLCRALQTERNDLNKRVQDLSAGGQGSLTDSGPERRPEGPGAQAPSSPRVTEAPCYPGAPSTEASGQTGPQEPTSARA

N#CN1CC[C@@H](C(=O)Nc2nc3c(s2)CN(C(=O)c2cccc(S(=O)(=O)N4CCOCC4)c2)CC3)C1 [Compound 340, (R)-1-Cyano-N-(5-(3-(morpholinosulfonyl)benzoyl)-4,5,6,7-tetrahydrothiazolo[5,4-c]pyridin-2-yl)pyrrolidine-3-carboxamide]
Average log2 CR (DMSO/inhibitor) ([1]; A549, 0.5 µM): 0.6134
Average log2 CR (DMSO/inhibitor) ([1]; A549, 5 µM): 0.7033
Average log2 CR (DMSO/inhibitor) ([2]; A549, 0.5 µM): 1.056
Average log2 CR (DMSO/inhibitor) ([2]; A549, 5 µM): 0.758
Average log2 CR (DMSO/inhibitor) ([3]; A549, 0.5 µM): 0.8087
Average log2 CR (DMSO/inhibitor) ([3]; A549, 5 µM): 0.7839
Average log2 CR (DMSO/inhibitor) ([4]; A549, 0.5 µM): 0.5943
Average log2 CR (DMSO/inhibitor) ([4]; A549, 5 µM): 0.5954
cytotoxicity [5]: did not show any cytotoxicity

N#CN1CC[C@@H](C(=O)Nc2nc3c(s2)CN(C(=O)c2cc(-n4cc(COCCOCCNc5cccc6c5C(=O)N(C5CCC(=O)NC5=O)C6=O)nn4)ccc2F)CC3)C1 (stereo partly shown) [JYQ-194]
Dmax ([6]; A549): ~80%
time from which PARK7 degradation is observed ([6]; A549 cells, 5 μM): 4 h
time by which maximal PARK7 degradation is reached ([6]; A549 cells, 5 μM, remained until 24 h): 8 h
concentration at which PARK7 degradation starts ([6]; A549 cells, 0.1 to 5 μM, 8 h): 0.1 µM
PARK7 degradation in other tumor cell lines ([6]; Hela, H1299, and MCF7 cells, 8 h): PARK7 degradation was observed in all these cells in a dose-dependent manner
PARK7 protein level (total proteome profiling) [7]: induced the degradation of PARK7
Abundance Ratio: (compound) / (1 DMSO) ([8]; ESYT2 (A0FGR8)): 1.074
Abundance Ratio: log2 (compound) / (1 DMSO) ([8]; ESYT2 (A0FGR8)): 0.1157
Abundance Ratio: (compound) / (1 DMSO) ([8]; RBM47 (A0AV96)): 1.045
Abundance Ratio: log2 (compound) / (1 DMSO) ([8]; RBM47 (A0AV96)): 0.07722
Abundance Ratio: (compound) / (1 DMSO) ([8]; SMIM26 (A0A096LP01)): 1.081
Abundance Ratio: log2 (compound) / (1 DMSO) ([8]; SMIM26 (A0A096LP01)): 0.1302
Abundance Ratio: (compound) / (1 DMSO) ([8]; TTC26 (A0AVF1)): 0.975
Abundance Ratio: log2 (compound) / (1 DMSO) ([8]; TTC26 (A0AVF1)): -0.08647
Abundance Ratio: (compound) / (1 DMSO) ([8]; UBA6 (A0AVT1)): 0.964
Abundance Ratio: log2 (compound) / (1 DMSO) ([8]; UBA6 (A0AVT1)): -0.04606
DOP1B protein level (total proteome profiling) ([8]; A549 cells, 5 μM): decreased
HINT2 protein level (total proteome profiling) ([8]; A549 cells, 5 μM): partly decreased
TM7SF3 protein level (total proteome profiling) ([8]; A549 cells, 5 μM): decreased

Source: paper PMC11129182, “Development of Inhibitors, Probes, and PROTAC Provides a Complete Toolbox to Study PARK7 in the Living Cell” (Journal of Medicinal Chemistry, 2024)
